# In patent publication US6124269A, “2-Halo-6-O-substituted ketolide derivatives” (priority 1998, dated 2000):
# Assays:
# Assay type in all cases: cell-based
# [1] = system: Enterococcus faecium ATCC 8043; assay: In vitro agar dilution MIC, organism code II; details: Table 1B, unit assumed
# Protocol: (§1) Representative compounds of the present invention were assayed in vitro for antibacterial activity as follows: Twelve petri dishes containing successive aqueous dilutions of the test compound mixed with 10 mL of sterilized Brain Heart Infusion (BHI) agar (Difco 0418-01-5) were prepared. Each plate was inoculated with 1:100 (or 1:10 for slow-growing strains, such as Micrococcus and Streptococcus) dilutions of up to 32 different microorganisms, using a Steers replicator block. The inoculated plates were incubated at 35-37° C. for 20 to 24 hours. In addition, a control plate, using BHI agar containing no test compound, was prepared and incubated at the beginning and end of each test.
# (§2) An additional plate containing a compound having known susceptibility patterns for the organisms being tested and belonging to the same antibiotic class as the test compound was also prepared and incubated as a further control, as well as to provide test-to-test comparability.
# (§3) After incubation, each plate was visually inspected. The minimum inhibitory concentration (MIC) was defined as the lowest concentration of drug yielding no growth, a slight haze, or sparsely isolated colonies on the inoculum spot as compared to the growth control.
# [2] = system: Staphylococcus aureus CMX 553; assay: In vitro agar dilution MIC, organism code FF; details: Table 1B, unit assumed
# Protocol: as §1, §2, §3
# Escherichia coli SS = assay: In vitro agar dilution MIC, organism code RR; details: Table 1B, in µg/mL (unit assumed)
# Protocol: as §1, §2, §3
# [3] = system: Streptococcus pneumoniae 5979; assay: In vitro agar dilution MIC, organism code ZZ; details: Table 1B, unit assumed
# Protocol: as §1, §2, §3
# [4] = system: Staphylococcus aureus A-5278; assay: In vitro agar dilution MIC, organism code CC; details: Table 1B, unit assumed
# Protocol: as §1, §2, §3
# [5] = system: Staphylococcus aureus 1775; assay: In vitro agar dilution MIC, organism code GG; details: Table 1B, unit assumed
# Protocol: as §1, §2, §3
# Escherichia coli DC-2 = assay: In vitro agar dilution MIC, organism code SS; details: Table 1B, unit assumed
# Protocol: as §1, §2, §3
# [6] = system: Staphylococcus aureus A5177; assay: In vitro agar dilution MIC, organism code BB; details: Table 1B, in µg/mL (unit assumed)
# Protocol: as §1, §2, §3
# Escherichia coli JUHL = assay: In vitro agar dilution MIC, organism code QQ; details: Table 1B, in µg/mL (unit assumed)
# Protocol: as §1, §2, §3
# [7] = system: Streptococcus pyogenes 930; assay: In vitro agar dilution MIC, organism code MM; details: Table 1B, unit assumed
# Protocol: as §1, §2, §3
# [8] = system: Staphylococcus aureus CMX 642A; assay: In vitro agar dilution MIC, organism code DD; details: Table 1B, unit assumed
# Protocol: as §1, §2, §3
# [9] = system: Haemophilis influenzae DILL AMP R; assay: In vitro agar dilution MIC, organism code WW; details: Table 1B, unit assumed
# Protocol: as §1, §2, §3
# [10] = system: Staphylococcus aureus NCTC10649M; assay: In vitro agar dilution MIC, organism code EE; details: Table 1B, unit assumed
# Protocol: as §1, §2, §3
# [11] = system: Nocardia asteroides ATCC 9970; assay: In vitro agar dilution MIC, organism code VV; details: Table 1B, in µg/mL (unit assumed)
# Protocol: as §1
# An additional plate containing a compound having known susceptibility patterns for the organisms being tested and belonging to the same antibiotic class as the test compound was also prepared and incubated as a further control, as well as to provide test-to-test comparability. Erythromycin A was used for this purpose.
# as §3
# [12] = system: Streptococcus pneumoniae 5649; assay: In vitro agar dilution MIC, organism code ZZA; details: Table 1B, unit assumed
# Protocol: as §1, §2, §3
# [13] = system: Streptococcus bovis A-5169; assay: In vitro agar dilution MIC, organism code JJ; details: Table 1B, unit assumed
# Protocol: as §1, §2, §3
# [14] = system: Streptococcus pyogenes EES61; assay: In vitro agar dilution MIC, organism code LL; details: Table 1B, unit assumed
# Protocol: as §1, §2, §3
# [15] = system: Micrococcus luteus ATCC 4698; assay: In vitro agar dilution MIC, organism code PP; details: Table 1B, in µg/mL (unit assumed)
# Protocol: as §1, §2, §3
# [16] = system: Mycobacterium smegmatis ATCC 114; assay: In vitro agar dilution MIC, organism code UU; details: Table 1B, in µg/mL (unit assumed)
# Protocol: as §1, §2, §3
# [17] = system: Staphylococcus aureus ATCC 6538P; assay: In vitro agar dilution MIC, organism code AA; details: Table 1B, unit assumed
# Protocol: as §1, §2, §3
# Candida albicans CCH 442 = assay: In vitro agar dilution MIC, organism code TT; details: Table 1B, unit assumed
# Protocol: as §1, §2, §3
# [18] = system: Streptococcus pneumoniae ATCC 6303; assay: In vitro agar dilution MIC, organism code XX; details: Table 1B, unit assumed
# Protocol: as §1, §2, §3
# [19] = system: Staphylococcus epidermidis 3519; assay: In vitro agar dilution MIC, organism code HH; details: Table 1B, in µg/mL (unit assumed)
# Protocol: as §1, §2, §3
# [20] = system: Micrococcus luteus ATCC 9341; assay: In vitro agar dilution MIC, organism code OO; details: Table 1B, unit assumed
# Protocol: as §1, §2, §3
# [21] = system: Streptococcus agalactiae CMX 508; assay: In vitro agar dilution MIC, organism code KK; details: Table 1B, unit assumed
# Protocol: as §1, §2, §3
# [22] = system: Streptococcus pneumoniae GYR 1171; assay: In vitro agar dilution MIC, organism code YY; details: Table 1B, unit assumed
# Protocol: as §1, §2, §3
# [23] = system: Streptococcus pyogenes PIU 2548; assay: In vitro agar dilution MIC, organism code NN; details: Table 1B, unit assumed
# Protocol: as §1, §2, §3
Compound,MIC [1] [µg/mL],MIC [2] [µg/mL],MIC (Escherichia coli SS),MIC [3] [µg/mL],MIC [4] [µg/mL],MIC [5] [µg/mL],MIC (Escherichia coli DC-2) [µg/mL],MIC [6],MIC (Escherichia coli JUHL),MIC [7] [µg/mL],MIC [8] [µg/mL],MIC [9] [µg/mL],MIC [10] [µg/mL],MIC [11],MIC [12] [µg/mL],MIC [13] [µg/mL],MIC [14] [µg/mL],MIC [15],MIC [16],MIC [17] [µg/mL],further results
CC[C@H]1OC(=O)C(C)(F)C(=O)[C@H](C)[C@@H](O[C@@H]2O[C@H](C)C[C@H](N(C)C)[C@H]2O)[C@](C)(OCC#CC(=O)c2ccccc2)C[C@@H](C)C(=O)[C@H](C)[C@H]2NC(=O)O[C@@]21C (stereo partly drawn) [Example 23],0.78,0.78,3.1,> 128,> 100,> 100,> 100,0.78,> 100,> 100,1.56,8,1.56,0.78,2,0.1,0.39,1.56,3.1,1.56,MIC (Candida albicans CCH 442): > 100 µg/mL; MIC [18]: 0.03 µg/mL; MIC [19]: 1.56; MIC [20]: 0.2 µg/mL; MIC [21]: 0.39 µg/mL; MIC [22]: 0.03 µg/mL; MIC [23]: 1.56 µg/mL
CC[C@H]1OC(=O)[C@@](C)(F)C(=O)[C@H](C)[C@@H](O[C@@H]2O[C@H](C)C[C@H](N(C)C)[C@H]2O)[C@](C)(OC/C=C/c2cnc3ccc(NC(=O)OC(C)(C)C)cc3c2)C[C@@H](C)C(=O)[C@H](C)[C@H]2NC(=O)O[C@@]21C [Example 8],0.2,0.39,6.2,16,> 100,> 100,> 100,0.39,> 100,12.5,0.39,16,0.39,0.78,1,0.05,0.05,0.39,0.78,0.39,MIC (Candida albicans CCH 442): > 100 µg/mL; MIC [18]: 0.06 µg/mL; MIC [19]: 0.39; MIC [20]: 0.05 µg/mL; MIC [21]: 0.05 µg/mL; MIC [22]: 0.06 µg/mL; MIC [23]: 0.39 µg/mL
CC[C@H]1OC(=O)[C@@](C)(F)C(=O)[C@H](C)[C@@H](O[C@@H]2O[C@H](C)C[C@H](N(C)C)[C@H]2O)[C@](C)(OC/C=C/c2cnc3ccc(C=NN=C(C)C)cc3c2)C[C@@H](C)C(=O)[C@H](C)[C@H]2NC(=O)O[C@@]21C [Example 20],0.1,0.1,0.78,2,> 100,> 100,> 100,0.1,> 100,1.56,0.1,4,0.2,0.02,1,0.01,0.02,0.1,0.78,0.1,MIC (Candida albicans CCH 442): > 100 µg/mL; MIC [18]: 0.125 µg/mL; MIC [19]: 0.2; MIC [20]: 0.02 µg/mL; MIC [21]: 0.02 µg/mL; MIC [22]: 0.06 µg/mL; MIC [23]: 0.2 µg/mL
CC[C@H]1OC(=O)C(C)(F)C(=O)[C@H](C)[C@@H](O[C@@H]2O[C@H](C)C[C@H](N(C)C)[C@H]2O)[C@](C)(OCC#CC(=O)c2cccs2)C[C@@H](C)C(=O)[C@H](C)[C@H]2NC(=O)O[C@@]21C (stereo partly drawn) [Example 24],0.39,1.56,3.1,> 64,> 100,> 100,> 100,1.56,100,100,1.56,16,1.56,0.78,1,0.2,0.39,0.78,3.1,1.56,MIC (Candida albicans CCH 442): > 100 µg/mL; MIC [18]: 0.06 µg/mL; MIC [19]: 1.56; MIC [20]: 0.2 µg/mL; MIC [21]: 0.39 µg/mL; MIC [22]: 0.03 µg/mL; MIC [23]: 3.1 µg/mL
CC[C@H]1OC(=O)[C@@](C)(F)C(=O)[C@H](C)[C@@H](O[C@@H]2O[C@H](C)C[C@H](N(C)C)[C@H]2O)[C@](C)(OC/C=C/c2cnc3ccc(N)cc3c2)C[C@@H](C)C(=O)[C@H](C)[C@H]2NC(=O)O[C@@]21C [Example 9],0.01,0.02,0.2,0.25,> 100,> 100,25,0.02,25,0.2,0.02,2,0.05,< 0.005,1,≤ 0.005,≤ 0.005,0.02,0.78,0.02,MIC (Candida albicans CCH 442): > 100 µg/mL; MIC [18]: 0.015 µg/mL; MIC [19]: 0.02; MIC [20]: ≤ 0.005 µg/mL; MIC [21]: ≤ 0.005 µg/mL; MIC [22]: 0.015 µg/mL; MIC [23]: 0.1 µg/mL
